Assays:
HEK293 = assay: Cytotoxicity against HEK293 cells after 48 hrs by MTS assay; assay type: cell-based, Homo sapiens; conditions: for EC50: Homo sapiens, HEK293, 48 h; for EC25: human, hek293, 48 h
[1] = Potency index, ratio of EC50 for valyl colchicine to EC50 for compound against HEK293 cells after 48 hrs by MTS assay; assay type: cell-based; conditions: human, read-out: Ratio EC50
[2] = Cytotoxicity against human M38L cells after 48 hrs by MTS assay; assay type: cell-based; conditions: for EC50: Homo sapiens, M38L; for EC25: human, m38l

| SMILES | EC50 (HEK293) [nM] | EC25 (HEK293) [nM] | selectivity ratio at 48 h [1] | EC50 [2] [nM] | EC25 [2] [nM] |
| --- | --- | --- | --- | --- | --- |
| COc1cc2c(c(OC)c1OC)-c1ccc(OC)c(=O)cc1[C@@H](NC(C)=O)CC2 [COLCHICINE] | 30 | 20 | 10 | 30 | 20 |
| COc1cc2c(c(OC)c1OC)-c1ccc(OC)c(=O)cc1[C@@H](NC(=O)[C@@H](N)C(C)C)CC2.Cl | 300 | 80 | – | 300 | 200 |

From ChEMBL document CHEMBL3286238, “Synthesis of a novel legumain-cleavable colchicine prodrug with cell-specific toxicity” (Bioorg Med Chem, 2014)
